In the supplement of paper PMC10307832:

How the values were obtained:
Assay in all cases: relative viability (nuclei count vs DMSO), 5 days (fraction); higher = more cells survive
201T = tested on: 201T
In short: (§1)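 Nuclei were stained with Hoechst during a one-step fixation (final 0.05% Triton X-100, 1% formaldehyde, 1 ug/ml Hoechst) carried out 5 days after dosing, then counted on 4× images. The cells, lung cancer lines in 1536-well plates, had been dosed by pin tool the day after seeding with one drug alone or a fixed anchor-drug dose plus five library-drug doses (not always all listed) in √10 steps. Relative viability is the nuclei count in treated wells divided by that in vehicle wells, and each value is the median of duplicate plates.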

A-427 = tested on: A-427
In short: as §1

BEN = tested on: BEN
In short: as §1

COR-L 105 = tested on: COR-L 105
In short: as §1

COR-L23 = tested on: COR-L23
In short: as §1

EKVX = tested on: EKVX
In short: as §1

HARA = tested on: HARA
In short: as §1

HCC-15 = tested on: HCC-15
In short: as §1

HCC-44 = tested on: HCC-44
In short: as §1

HCC-827 = tested on: HCC-827
In short: as §1

LK-2 = tested on: LK-2
In short: as §1

NCI-H1437 = tested on: NCI-H1437
In short: as §1

NCI-H1666 = tested on: NCI-H1666
In short: as §1

NCI-H1975 = tested on: NCI-H1975
In short: as §1

NCI-H23 = tested on: NCI-H23
In short: as §1

NCI-H358 = tested on: NCI-H358
In short: as §1

NCI-H441 = tested on: NCI-H441
In short: as §1

NCI-H596 = tested on: NCI-H596
In short: as §1

NCI-H650 = tested on: NCI-H650
In short: as §1

NCI-H838 = tested on: NCI-H838
In short: as §1

SK-MES-1 = tested on: SK-MES-1
In short: as §1

SW 900 = tested on: SW 900
In short: as §1

## NC(=O)Nc1cc(-c2cccc(F)c2)sc1C(=O)N[C@H]1CCCNC1 [AZD7762] + O=C(CCCCCCC(=O)Nc1ccccc1)NO [Vorinostat] (partner 1 µM)
201T; first compound 0.01 µM
  relative viability: 0.996
201T; first compound 0.03162 µM
  relative viability: 1.03
201T; first compound 0.1 µM
  relative viability: 1.03
201T; first compound 0.3162 µM
  relative viability: 1.08
201T; first compound 1 µM
  relative viability: 1.01
A-427; first compound 0.01 µM
  relative viability: 0.875
A-427; first compound 0.03162 µM
  relative viability: 0.874
A-427; first compound 0.1 µM
  relative viability: 0.857
A-427; first compound 0.3162 µM
  relative viability: 0.728
A-427; first compound 1 µM
  relative viability: 0.41
BEN; first compound 0.01 µM
  relative viability: 0.639
BEN; first compound 0.03162 µM
  relative viability: 0.558
BEN; first compound 0.1 µM
  relative viability: 0.633
BEN; first compound 0.3162 µM
  relative viability: 0.619
BEN; first compound 1 µM
  relative viability: 0.543
COR-L 105; first compound 0.01 µM
  relative viability: 0.989
COR-L 105; first compound 0.03162 µM
  relative viability: 0.823
COR-L 105; first compound 0.1 µM
  relative viability: 0.808
COR-L 105; first compound 0.3162 µM
  relative viability: 0.609
COR-L 105; first compound 1 µM
  relative viability: 0.444
COR-L23; first compound 0.01 µM
  relative viability: 0.562
COR-L23; first compound 0.03162 µM
  relative viability: 0.423
COR-L23; first compound 0.1 µM
  relative viability: 0.246
COR-L23; first compound 0.3162 µM
  relative viability: 0.129
COR-L23; first compound 1 µM
  relative viability: 0.0864
EKVX; first compound 0.01 µM
  relative viability: 0.78
EKVX; first compound 0.03162 µM
  relative viability: 0.758
EKVX; first compound 0.1 µM
  relative viability: 0.707
EKVX; first compound 0.3162 µM
  relative viability: 0.794
EKVX; first compound 1 µM
  relative viability: 0.461
HARA; first compound 0.01 µM
  relative viability: 0.454
HARA; first compound 0.03162 µM
  relative viability: 0.483
HARA; first compound 0.1 µM
  relative viability: 0.509
HARA; first compound 0.3162 µM
  relative viability: 0.503
HARA; first compound 1 µM
  relative viability: 0.451
HCC-15; first compound 0.01 µM
  relative viability: 0.844
HCC-15; first compound 0.03162 µM
  relative viability: 0.691
HCC-15; first compound 0.1 µM
  relative viability: 0.908
HCC-15; first compound 0.3162 µM
  relative viability: 0.734
HCC-15; first compound 1 µM
  relative viability: 0.723
HCC-44; first compound 0.01 µM
  relative viability: 1.08
HCC-44; first compound 0.03162 µM
  relative viability: 1.11
HCC-44; first compound 0.1 µM
  relative viability: 1.1
HCC-44; first compound 0.3162 µM
  relative viability: 1.1
HCC-44; first compound 1 µM
  relative viability: 1.02
HCC-827; first compound 0.01 µM
  relative viability: 0.984
HCC-827; first compound 0.03162 µM
  relative viability: 0.947
HCC-827; first compound 0.1 µM
  relative viability: 0.846
HCC-827; first compound 0.3162 µM
  relative viability: 0.753
HCC-827; first compound 1 µM
  relative viability: 0.618
LK-2; first compound 0.01 µM
  relative viability: 0.307
LK-2; first compound 0.03162 µM
  relative viability: 0.316
LK-2; first compound 0.1 µM
  relative viability: 0.272
LK-2; first compound 0.3162 µM
  relative viability: 0.468
LK-2; first compound 1 µM
  relative viability: 0.283
NCI-H1437; first compound 0.01 µM
  relative viability: 0.964
NCI-H1437; first compound 0.03162 µM
  relative viability: 0.85
NCI-H1437; first compound 0.1 µM
  relative viability: 0.88
NCI-H1437; first compound 0.3162 µM
  relative viability: 0.639
NCI-H1437; first compound 1 µM
  relative viability: 0.49
NCI-H1666; first compound 0.01 µM
  relative viability: 1.16
NCI-H1666; first compound 0.03162 µM
  relative viability: 1.17
NCI-H1666; first compound 0.1 µM
  relative viability: 1.22
NCI-H1666; first compound 0.3162 µM
  relative viability: 1.21
NCI-H1666; first compound 1 µM
  relative viability: 1.07
NCI-H1975; first compound 0.01 µM
  relative viability: 0.725
NCI-H1975; first compound 0.03162 µM
  relative viability: 0.641
NCI-H1975; first compound 0.1 µM
  relative viability: 0.655
NCI-H1975; first compound 0.3162 µM
  relative viability: 0.626
NCI-H1975; first compound 1 µM
  relative viability: 0.401
NCI-H23; first compound 0.01 µM
  relative viability: 0.634
NCI-H23; first compound 0.03162 µM
  relative viability: 0.503
NCI-H23; first compound 0.1 µM
  relative viability: 0.582
NCI-H23; first compound 0.3162 µM
  relative viability: 0.248
NCI-H23; first compound 1 µM
  relative viability: 0.149
NCI-H358; first compound 0.01 µM
  relative viability: 0.687
NCI-H358; first compound 0.03162 µM
  relative viability: 0.667
NCI-H358; first compound 0.1 µM
  relative viability: 0.658
NCI-H358; first compound 0.3162 µM
  relative viability: 0.346
NCI-H358; first compound 1 µM
  relative viability: 0.0934
NCI-H441; first compound 0.01 µM
  relative viability: 1.09
NCI-H441; first compound 0.03162 µM
  relative viability: 0.804
NCI-H441; first compound 0.1 µM
  relative viability: 1.01
NCI-H441; first compound 0.3162 µM
  relative viability: 0.864
NCI-H441; first compound 1 µM
  relative viability: 0.312
NCI-H596; first compound 0.01 µM
  relative viability: 0.691
NCI-H596; first compound 0.03162 µM
  relative viability: 0.803
NCI-H596; first compound 0.1 µM
  relative viability: 0.716
NCI-H596; first compound 0.3162 µM
  relative viability: 0.593
NCI-H596; first compound 1 µM
  relative viability: 0.594
NCI-H650; first compound 0.01 µM
  relative viability: 0.435
NCI-H650; first compound 0.03162 µM
  relative viability: 0.404
NCI-H650; first compound 0.1 µM
  relative viability: 0.411
NCI-H650; first compound 0.3162 µM
  relative viability: 0.399
NCI-H650; first compound 1 µM
  relative viability: 0.334
NCI-H838; first compound 0.01 µM
  relative viability: 0.731
NCI-H838; first compound 0.03162 µM
  relative viability: 0.726
NCI-H838; first compound 0.1 µM
  relative viability: 0.76
NCI-H838; first compound 0.3162 µM
  relative viability: 0.745
NCI-H838; first compound 1 µM
  relative viability: 0.272
SK-MES-1; first compound 0.01 µM
  relative viability: 1.12
SK-MES-1; first compound 0.03162 µM
  relative viability: 1.01
SK-MES-1; first compound 0.1 µM
  relative viability: 0.841
SK-MES-1; first compound 0.3162 µM
  relative viability: 0.45
SK-MES-1; first compound 1 µM
  relative viability: 0.192
SW 900; first compound 0.01 µM
  relative viability: 0.643
SW 900; first compound 0.03162 µM
  relative viability: 0.445
SW 900; first compound 0.1 µM
  relative viability: 0.545
SW 900; first compound 0.3162 µM
  relative viability: 0.262
SW 900; first compound 1 µM
  relative viability: 0.275
